Inconclusive results are not listed. The source made the active and inactive calls.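 How the source made its calls: active means compound lowering the normal-ribosome reporter at least twice as much as the humanized-ribosome reporter, growth loss under a set limit; inconclusive means no clear call, values can overlap the other calls; inactive means the rest.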

This assay concerns E. coli WT-GFP vs G2058-humanized RFP, fluorescence, 24 h. The assay is described as follows: growth inhibition of wild-type GFP E. coli versus G2058-humanized strain, dose response, G2058 mutant RFP vs wild-type GFP, cherry-pick, two tests (AID 1035470).
Setting [1] is: E. coli WT-GFP vs G2058-humanized RFP mixed culture, total growth OD600, 24 h.
Where [2] appears, read: measured here: G2058 humanized mutant RFP growth.

Consider `C[C@H]1CN([C@@H](C)CO)C(=O)CCCn2nncc2CO[C@@H]1CN(C)Cc1ccccc1C(F)(F)F`, for which the AC50 is over 100 µM under setting [1] and 6.94 µM under setting [2].

On to `CCOc1ccccc1NC(=O)c1cc(SC)ccc1Cl`, for which the AC50 is > 100 µM (inactive). This compound returned a half-maximal activity concentration (AC50) under setting [1] of over 100 µM.

`COc1cc(OC)cc(C(=O)Nc2ccc(S(=O)(=O)Nc3cnc4ccccc4n3)cc2)c1`: the AC50 was > 100 µM (inactive).

Consider `CCN(CC)S(=O)(=O)c1cc(NC(=O)C(C)N2CCN(Cc3ccc4c(c3)OCO4)CC2)ccc1C` (centres undefined), for which the AC50 is > 100 µM (inactive). Under setting [2], the AC50 was over 100 µM.

Consider `O=C(CSCc1c(Cl)cccc1Cl)NCc1ccccn1`, for which the AC50 is > 100 µM (inactive).

With `CCn1c(-c2ccccc2Cl)nn(CC(=O)Nc2ccccc2OC)c1=S`, the AC50 was > 100 µM (inactive).

Turning to `Cn1ccc2cc(-c3ccc4ncnc(NCc5cccs5)c4c3)ccc21`, the AC50 under setting [1] was over 100 µM.

As for `C=C1c2cc3c(cc2NC(=S)N1Cc1ccccc1)OCO3`, the concentration at half-maximal activity (AC50) under setting [1] is over 100 µM.

For `O=C1c2ccccc2CSc2c(O)cccc21`, the AC50 was > 100 µM (inactive).

Regarding `N#Cc1c(N)nc(SCc2ccccc2)c(C#N)c1-c1ccco1`, the AC50 was > 100 µM (inactive).

In the case of `Nc1ccc(C(=O)OCCc2ccccc2)cc1`, the AC50 was > 100 µM (inactive). Moreover, the half-maximal activity concentration (AC50) under setting [2] stood at 45.9 µM.

Consider `COc1cccc(-c2ccc(SCc3ccccn3)nn2)c1`, for which the AC50 is > 100 µM (inactive).

Under setting [1], `O=C(COC(=O)C1CC1)Nc1nc(-c2ccc(F)c(F)c2)cs1` gave a concentration at half-maximal activity (AC50) of over 100 µM.

For the compound `OC(COc1ccc(Cl)cc1)CN1CCN(c2ccccn2)CC1` (centres undefined), the AC50 is > 100 µM (inactive).

Regarding `CCC(=O)Nc1nc2ccc(NC(=O)c3cc(OC)c(OC)c(OC)c3)cc2s1`, the AC50 was > 100 µM (inactive).

On to `CC1C=Cc2ccccc2N1C(=O)c1ccccc1` (centres undefined), for which the AC50 was > 100 µM (inactive).

As for `COc1cc(NC(=O)COC(=O)CC(C)(C)C)c(C)cc1[N+](=O)[O-]`, the AC50 was > 100 µM (inactive). The compound also yielded a concentration at half-maximal activity (AC50) under setting [1] of over 100 µM.

On to `CCOC(=O)c1sc(NC(=O)CN2CCN(c3ccccc3)CC2)nc1C`, for which the AC50 was > 100 µM (inactive). For the same compound, under setting [1], the half-maximal activity concentration (AC50) was over 100 µM.

Regarding `Cc1cc(C(=O)Nc2ccc3ccccc3c2)c(C)o1`, the AC50 was > 100 µM (inactive). Under setting [1], this compound gave a concentration at half-maximal activity (AC50) of over 100 µM.

Consider `COc1ccc(NC(=O)CCC(=O)c2cccs2)cc1S(=O)(=O)Nc1ccc(Cl)cc1`, for which the AC50 was > 100 µM (inactive).

On to `CCOc1ccc2oc(-c3ccccc3)c(C(=O)N(C)C)c2c1`, for which the AC50 was > 100 µM (inactive). Moreover, the AC50 under setting [1] is over 100 µM.

On to `CCn1ncc(Br)c1C(=O)Nc1ccc2c(c1)OCCO2`, for which the AC50 was > 100 µM (inactive).

Regarding `CCn1ccnc1CN1CCCC(C(=O)c2ccc3cc(OC)ccc3c2)C1` (centres undefined), the AC50 is > 100 µM (inactive). Under setting [1], the AC50 was over 100 µM.

In the case of `CS(=O)(=O)c1ccc(C(=O)Nc2nc(-c3ccco3)c(-c3ccco3)s2)cc1`, the AC50 was > 100 µM (inactive). The compound also displayed a half-maximal activity concentration (AC50) under setting [1] of over 100 µM. In addition, the AC50 under setting [2] was over 100 µM.

`Cc1cc(C(=O)Nc2cccc3c2O[C@H](CN(C)S(=O)(=O)c2ccc(Cl)cc2)[C@H](C)CN([C@H](C)CO)C3=O)n(C)n1`: the AC50 is > 100 µM (inactive). The compound also returned an AC50 under setting [2] of 32.9 µM.

For `CCN(CC)CC(=O)Nc1ccc(-c2ccc(NC(=O)CN(CC)CC)c(OC)c2)cc1OC`, the AC50 was > 100 µM (inactive). The AC50 under setting [1] was over 100 µM.

For the compound `Cc1nn(CC(=O)OCCOc2ccc(Br)cc2)c(C)c1[N+](=O)[O-]`, the AC50 was > 100 µM (inactive).

On to `COc1ccc(OC)c(-c2csc(NC(=O)C3COc4ccccc4O3)n2)c1` (centres undefined), for which the AC50 was > 100 µM (inactive). Under setting [1], this compound had a concentration at half-maximal activity (AC50) of over 100 µM.

Consider `Cc1ccc(C)c(N2CCN(C(=O)CCS(=O)(=O)c3ccc4c(c3)oc(=O)n4C)CC2)c1`, for which the concentration at half-maximal activity (AC50) under setting [1] was over 100 µM.

For the compound `CC(C(=O)Nc1nc2ccccc2s1)n1cc([N+](=O)[O-])cn1` (centres undefined), the AC50 is > 100 µM (inactive). The concentration at half-maximal activity (AC50) under setting [1] is over 100 µM. Besides, the AC50 under setting [2] is over 100 µM.

As to `CCOC(=O)c1c(C)[nH]c(C)c1S(=O)(=O)NCCN1CCN(c2ccccc2F)CC1`, the AC50 is > 100 µM (inactive). Under setting [1], this compound registered an AC50 of over 100 µM.

In turn, `COc1ccc(OC)c(NC(=O)COc2ccc(S(=O)(=O)NC(C)C)cc2)c1` came in with an AC50 under setting [1] of over 100 µM.

Regarding `CCCCCc1nnc(NC(=O)C2COc3ccccc3O2)s1` (centres undefined), the AC50 was > 100 µM (inactive). The half-maximal activity concentration (AC50) under setting [1] was over 100 µM. This compound also had an AC50 under setting [2] of 23.2 µM.

On to `CC(C)(C)S(=O)(=O)Cc1nc(-c2ccc(Cl)c(Cl)c2)cs1`, for which, under setting [2], the AC50 was 38.5 µM.

As for `Cc1cc(C)c(OCCN(C)Cc2ccccc2)c(Br)c1`, the concentration at half-maximal activity (AC50) under setting [1] is over 100 µM.

For the compound `CN(CCOc1ccccc1)C(=O)c1ccc(OC2CCN(C(=O)C3CC3)CC2)cc1`, the AC50 was > 100 µM (inactive). This compound returned an AC50 under setting [1] of over 100 µM.

Consider `O=C(Nc1cccc(S(=O)(=O)c2cccc(NC(=O)C3CC3)c2)c1)C1CC1`, for which the AC50 under setting [1] is over 100 µM.

`Cc1nc(N2CCC(C)CC2)c(C#N)c(C)c1[N+](=O)[O-]`: the AC50 is > 100 µM (inactive).

Take `CCN(CC(=O)Nc1ccccc1OC)CC(=O)Nc1c(Cl)ccc(C)c1Cl`: the AC50 was > 100 µM (inactive). This compound also had an AC50 under setting [1] of over 100 µM.

As to `CCOC(=O)c1sc(Nc2cccc(Cl)c2)nc1C`, the AC50 is > 100 µM (inactive).

With `CCc1nnc(NS(=O)(=O)c2ccc(NC(=O)c3cccc(Cl)c3)cc2)s1`, the AC50 was > 100 µM (inactive). Under setting [1], this compound yielded a half-maximal activity concentration (AC50) of over 100 µM. Under setting [2], this compound returned a half-maximal activity concentration (AC50) of over 100 µM.

Turning to `COc1cccc(OC)c1CNC(=O)CCSCc1ccccc1F`, the AC50 is > 100 µM (inactive). Under setting [1], this compound had a half-maximal activity concentration (AC50) of over 100 µM.

Consider `CC(C)(C)c1ccc(S(=O)(=O)NCc2ccc(C(=O)NCc3ccccn3)cc2)cc1`, for which the AC50 was > 100 µM (inactive). Moreover, the AC50 under setting [1] was over 100 µM.

`COc1cccc(NC(=O)c2ccc(NCCCN3CCC(C)CC3)c([N+](=O)[O-])c2)c1` registered an AC50 under setting [2] of 28.4 µM.

With `CCN(C(=O)CSc1cc(C)c2ccc(OC)cc2n1)C1CCS(=O)(=O)C1` (centres undefined), the AC50 is > 100 µM (inactive). Moreover, the AC50 under setting [2] amounted to 3.93 µM.

Under setting [1], `Fc1ccc(-c2nc3ccc(Cl)cn3c2Cc2cccc(Cl)c2)cc1` came in with an AC50 of over 100 µM.

As to `CC(=O)OC(COc1cccc(C)c1)Cn1cnc2ccccc21` (centres undefined), the AC50 is > 100 µM (inactive). Under setting [1], this compound returned a half-maximal activity concentration (AC50) of over 100 µM.

`CC(=O)CSc1ccc(-c2nc3ccccc3[nH]2)cn1`: the AC50 was > 100 µM (inactive). The AC50 under setting [1] is over 100 µM.

Under setting [1], `CCC1CCCCN1C(=O)CSc1nnc(-c2cccc(Cl)c2)o1` (centres undefined) returned a half-maximal activity concentration (AC50) of over 100 µM.

With `CCCNC(=O)c1cc(C2CCCN(S(=O)(=O)c3cccc4cccnc34)C2)on1` (centres undefined), the AC50 is > 100 µM (inactive).

With `O=C(NCc1ccc2c(c1)OCO2)c1sccc1Br`, the AC50 was > 100 µM (inactive). The compound further showed an AC50 under setting [1] of over 100 µM.

As to `Cc1cccc(NC(=O)c2c(C)nn(-c3ccccc3)c2Cl)c1`, under setting [1], the half-maximal activity concentration (AC50) was over 100 µM.

Compound `O=C(Nc1cccc(Cl)c1)N1C[C@@H]2[C@H](c3ccccc31)[C@@H](CO)N2C(=O)c1cccnc1` registered a half-maximal activity concentration (AC50) under setting [2] of over 100 µM.

Turning to `O=C(CN1CCN(S(=O)(=O)c2ccc(Cl)cc2)CC1)Nc1ccc2c(c1)CCC2`, the AC50 was > 100 µM (inactive).

With `COc1ccc(Nc2oc(-c3ccco3)nc2S(=O)(=O)c2ccc(F)cc2)cc1`, the AC50 is 8.11 µM. In addition, the concentration at half-maximal activity (AC50) (E. coli WT-GFP vs G2058-humanized RFP mixed culture, OD600 growth, 24 h, test 1) came to 29 µM. Further, the concentration at half-maximal activity (AC50) (measured here: mutant RFP, test 1) stood at 37.6 µM. This compound displayed an AC50 (measured here: wild-type GFP, test 1) of 4.64 µM.

Compound `Cc1nn2c(NCc3ccccn3)cc(C(C)C)nc2c1-c1ccccc1` yielded a half-maximal activity concentration (AC50) under setting [1] of over 100 µM.

Consider `Cc1ccccc1-n1nnnc1SCCCC(=O)c1ccc(F)cc1`, for which, under setting [2], the concentration at half-maximal activity (AC50) was over 100 µM.

For `Cc1cc(-c2ccc(C)c(S(=O)(=O)NCC3CCN(Cc4ccccc4F)CC3)c2)on1`, the AC50 is > 100 µM (inactive). Moreover, the AC50 under setting [1] was over 100 µM.

For `O=C(NC1CCCC(C(F)(F)F)C1)c1ccc([N+](=O)[O-])o1` (centres undefined), the AC50 was > 100 µM (inactive).

Take `COC(=O)c1ccc2nc(-c3cccc(Br)c3)c(Cc3ccsc3)n2c1`: the AC50 was > 100 µM (inactive). Besides, under setting [2], the concentration at half-maximal activity (AC50) was over 100 µM.

Turning to `COc1ccc(C(=O)N(c2ccccc2)c2nccc3ccccc23)cc1OC`, the AC50 was > 100 µM (inactive).

For `COc1ccc2nc(SCC(=O)Nc3ccccc3)[nH]c2c1`, the AC50 is > 100 µM (inactive).

With `O=C1c2ccccc2C(c2nnnn2C2CCCCC2)N1CCc1ccc(O)cc1` (centres undefined), the AC50 was > 100 µM (inactive).

Turning to `Fc1cccc(CCN2C(=S)NC[C@@H]2CC2CCCCC2)c1`, the AC50 is > 100 µM (inactive).

Regarding `CCc1ccc2nc(N(CCCN(C)C)C(=O)c3ccc4c(c3)OCCO4)sc2c1`, the AC50 is > 100 µM (inactive). This compound also showed an AC50 under setting [1] of over 100 µM.

As to `CCC(=O)Nc1nc2c(OC)ccc(OC)c2s1`, the AC50 was > 100 µM (inactive).

For `O=C1c2cccc3cccc(c23)C(=O)N1c1ccccc1Cl`, the AC50 is > 100 µM (inactive).

Take `Cc1ccc(Cn2cnc3ccccc32)cc1`: the AC50 is > 100 µM (inactive).

On to `COC(=O)c1ccsc1NC(=O)c1cccc(OC)c1`, for which the half-maximal activity concentration (AC50) under setting [2] was 5.79 µM.

`Cc1cccc(C(=O)NCC(=O)NCCSc2ccc(Br)cc2)c1`: the AC50 was > 100 µM (inactive). The compound also showed an AC50 under setting [2] of 7.48 µM.

As for `Cc1cc(OCC(=O)N(Cc2ccco2)C2CCS(=O)(=O)C2)ccc1Cl` (centres undefined), the AC50 is > 100 µM (inactive). Under setting [1], this compound had a concentration at half-maximal activity (AC50) of over 100 µM.

Under setting [1], `CCC(C(=O)NC1CCCC1)n1c(-c2ccnc3ccccc23)nc2ccccc21` (centres undefined) came in with a half-maximal activity concentration (AC50) of over 100 µM.

Regarding `Cc1cc(C)nc(SCc2cn3c(C)cccc3n2)n1`, the AC50 is > 100 µM (inactive). This compound also gave an AC50 under setting [1] of over 100 µM.

Regarding `Nc1ncncc1-c1ccc2ccccc2c1`, the AC50 is > 100 µM (inactive). Besides, the AC50 under setting [2] was found to be 48.9 µM.

For the compound `O=C(Nc1cscc1S(=O)(=O)c1ccccc1)c1ccccc1Cl`, the AC50 was > 100 µM (inactive).

A word on the AC50: it is the concentration at which the activity in the assay is half-maximal.

The values above are taken from PubChem BioAssay AID1035470 (Broad Institute, 2014).
